Source: patent EP0306826A1, “N-(substituted alkylidene)fused bicycloalkylidene and hetero-alkylidene quinolinamines, a process for their preparation and their use as medicaments” (HOECHST-ROUSSEL PHARMACEUTICALS INCORPORATED, priority 1987, dated 1989)

Experiments:
[1] = biological target: acetylcholinesterase (Homo sapiens, UniProt P22303); experiment: Acetylcholinesterase Inhibition Assay (photometric method of Ellman et al.); format: biochemical
[2] = test system: mice; experiment: Dark Avoidance Assay (reversal of scopolamine induced memory deficit); format: in vivo
Procedure: In this assay mice are tested for their ability to remember an unpleasant stimulus for a period of 24 hours. A mouse is placed in a chamber that contains a dark compartment; a strong incandescent light drives it to the dark compartment, where an electric shock is administered through metal plates on the floor. The animal is removed from the testing apparatus and tested again, 24 hours later, for the ability to remember the electric shock.
If scopolamine, an anticholinergic that is known to cause memory impairment, is administered before an animal's initial exposure to the test chamber, the animal re-enters the dark compartment shortly after being placed in the test chamber 24 hours later. This effect of scopolamine is blocked by an active test compound, resulting in a greater interval before re-entry into the dark compartment.
The test results are expressed as the percent of a group of animals in which the effect of scopolamine is blocked, as manifested by an increased interval between being placed in the test chamber and re-entering the dark compartment.

Sequence of acetylcholinesterase (P22303 32-614): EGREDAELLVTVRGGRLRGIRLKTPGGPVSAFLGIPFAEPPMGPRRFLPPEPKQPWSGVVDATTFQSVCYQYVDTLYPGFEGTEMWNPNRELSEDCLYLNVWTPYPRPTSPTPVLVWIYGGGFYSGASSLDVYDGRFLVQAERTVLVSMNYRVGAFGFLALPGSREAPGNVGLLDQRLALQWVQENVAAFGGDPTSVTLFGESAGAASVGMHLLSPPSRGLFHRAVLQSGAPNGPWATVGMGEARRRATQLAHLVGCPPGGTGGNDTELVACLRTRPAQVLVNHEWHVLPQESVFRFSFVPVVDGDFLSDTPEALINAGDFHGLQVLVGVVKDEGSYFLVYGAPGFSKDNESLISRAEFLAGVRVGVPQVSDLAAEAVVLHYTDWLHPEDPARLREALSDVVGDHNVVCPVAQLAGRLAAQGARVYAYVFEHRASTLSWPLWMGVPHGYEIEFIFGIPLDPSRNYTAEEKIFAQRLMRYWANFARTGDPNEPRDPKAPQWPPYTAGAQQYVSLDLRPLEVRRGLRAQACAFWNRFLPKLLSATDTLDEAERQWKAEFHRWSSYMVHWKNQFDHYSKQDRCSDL

Row | Compound | IC50 [1] | % of Animals with Scopolamine Induced Memory Deficit Reversal ([2]; mice, dose 0.31 mg/kg of body weight, s.c, retest 24 hours later) | % of Animals with Scopolamine Induced Memory Deficit Reversal ([2]; mouse, in vivo, 0.31 mg/kg)
1 | C(=Nc1c2c(nc3ccccc13)C1CCC2C1)c1ccccc1 (stereo not shown) [1,4-Methano-N-(phenylmethylene)-1,2,3,4-tetrahydro-9-acridinamine] | 12 µM | 27% | 
2 | CNC(=O)Oc1ccc2c(c1)[C@]1(C)CCN(C)[C@@H]1N2C [Physostigmine, reference compound] |  |  | 20%
3 | FC(F)(F)c1ccc2c(N=Cc3ccccc3)c3c(nc2c1)C1CCC3C1 (stereo not shown) [1,4-Methano-N-(phenylmethylene)-6-trifluoromethyl-1,2,3,4-tetrahydro-9-acridinamine] | 22 µM |  | 
